Common to all, as to assay: DTP human tumour cell line panel, 48 h
Assay [1] concerns DLD-1 colon.
Assay [2] relates to NCI-H226 lung.
Assay [3] concerns SK-MEL-2 melanoma.
Assay [4] deals with K-562 leukemia.
Assay [5] relates to A549 NSCLC.
In assay [6] the test system is UO-31 renal.
Assay [7] has as its system SW-620 colon.
Assay [8] deals with T-47D breast.
Assay [9] deals with MDA-N.
For assay [10], the system named is MCF7 breast.

For eleven compounds, TGI and GI50 results are on record in PubChem BioAssay (NCI).

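Grown in 96-well plates, cells were treated for 48 hours with each compound at five concentrations. Insufficient inhibition: endpoint recorded as highest concentration tested. GI50 = concentration required for 50% inhibition of growth. At the TGI there is no net growth.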

What is called TGI is the concentration at which net growth stops. A high value points to less potent growth arrest. By GI50 is commonly meant the concentration giving 50% growth inhibition.

As to `N#C/C(=C1\OC(=N)C(c2ccc(Cl)cc2Cl)C1=O)c1ccc(Cl)cc1Cl` (configuration not stated), the TGI in assay [1], in assay [2], in assay [3], in [4], in assay [5] and in assay [6] was above 100 µM in each case. In [7], this compound came in with a TGI above 100 µM.

As to `CC(=O)OCC(CC[CH2][Sn]([Cl])([Cl])[c]1ccccc1)OC(C)=O` (configuration not stated), the GI50 in [1] is 21.2 µM; in assay [2] it was 30.7 µM; in assay [3], 18.8 µM; in [4] it was 24.9 µM; in [5] it was 21.9 µM; in [6] it was 17.2 µM. For the same compound, the GI50 in [7] is 16.7 µM. In addition, the total growth inhibition concentration (TGI) in [1] was 47.2 µM; in assay [2], above 100 µM; in [3], 36.4 µM; in [4], 71.8 µM; in [5] it was 53 µM; in assay [6], 33 µM. In addition, the TGI in assay [7] is 30.3 µM.

Consider `CC(C)OC(=O)C1Cc2c([nH]c3ccccc23)C(c2ccccc2)N1` (configuration not stated), for which the TGI is above 100 µM in assay [1]; above 100 µM in assay [2]; 41.2 µM in [3]; above 100 µM in assay [4]; above 100 µM in assay [5]; 73.9 µM in assay [6]. The TGI in assay [7] is above 100 µM.

Consider `C[P+]1(c2ccccc2)CCCCC1`, for which the TGI in assay [1], in assay [3], in assay [4], in [5], in [6] and in [7] was above 100 µM each time.

Turning to `CN(C)c1nc(N)c(C#N)c(C#N)c1C#N`, the TGI is above 10 µM in [8]; above 10 µM in [2]; above 10 µM in [9]; above 10 µM in assay [10]; above 10 µM in assay [3]; above 7.15 µM in assay [4]. The TGI in assay [5], in assay [6] and in assay [7] was above 10 µM each time.

Consider `COc1ccc(OC)c(Cc2cnc3nc(N)nc(N)c3c2C)c1`, for which the TGI in [8] is 47.2 µM; in assay [2], 33.3 µM; in [9], above 57.7 µM; in [10], 28.6 µM; in assay [3], 27.9 µM; in [4], 14.9 µM. The total growth inhibition concentration (TGI) in assay [5] is 36.9 µM; in assay [6], 27.7 µM; in [7], above 45.1 µM.

Consider `O=[N+]([O-])c1cc(Cc2cc([N+](=O)[O-])c3cccnc3c2O)c(O)c2ncccc12`, for which the TGI in [8] was 18 µM; in assay [2] it was 43.5 µM; in [9] it was above 80 µM; in assay [10] it was 29.6 µM; in assay [3], 29.6 µM; in [4], above 100 µM. Further, the TGI in assay [5] is 30.8 µM; in assay [6], 21.8 µM; in assay [7], above 67.9 µM.

In the case of `CCOC(=O)C(CCCNC(=O)OC(C)(C)C)N(Cc1ccc(OC)cc1OC)C(=O)CC(=O)CP(=O)(OCC)OCC` (configuration not stated), the TGI in assay [1], in assay [2], in [3], in assay [4], in [5] and in assay [6] was above 100 µM in each case.

In the case of `[Cl][Cu][Cl]`, the GI50 in assay [8], in [2], in assay [9], in assay [10], in assay [3] and in [4] was above 10 µM in each case. Also, the GI50 in assay [5], in assay [6] and in assay [7] was above 10 µM each time. In addition, the TGI in assay [8], in [2], in assay [9], in [10], in [3] and in assay [4] was above 10 µM throughout. Further, the TGI in [5], in assay [6] and in assay [7] was above 10 µM in each case.

On to `CN1CCCC1c1cccnc1.O=C(O)c1ccccc1O.O=C([O-])c1ccccc1[OH2+].O=C([O-])c1ccccc1[OH2+].[Mn+2]` (configuration not stated), for which the GI50 in assay [8] was above 100 µM; in assay [2] it was above 100 µM; in assay [9], above 100 µM; in assay [10], 40.3 µM; in assay [3], 54.3 µM; in assay [4], above 100 µM. The GI50 in assay [5] is above 100 µM; in assay [6] it was above 100 µM; in [7] it was 64.3 µM. Further, the TGI in assay [8], in assay [2], in assay [9], in assay [10], in assay [3] and in assay [4] was above 100 µM throughout. The TGI in assay [5], in assay [6] and in [7] was above 100 µM in each case.

In the case of `Cc1ccc(S(=O)(=O)NC(=O)OC23COCN2COC3)cc1`, the TGI in assay [8], in assay [2], in [9], in assay [10], in assay [3] and in [4] was above 100 µM in each case. Moreover, the TGI in assay [5], in assay [6] and in [7] was above 100 µM in each case.
